{
  "source": "patent EP4559927A1",
  "about": "“CARRIER PEPTIDE FRAGMENT AND USE THEREOF” (Toagosei Co., Ltd., priority 2022, dated 2025)",
  "note": "Primed or numbered codes have the meaning given here. FAM = 5(6)-carboxyfluorescein; FAM″ = C-terminal FAM dye",
  "data": [
    {"system": "NSC-34 cells", "experiment": "Evaluation on cell membrane permeability by flow cytometry", "type": "cell-based, mouse", "conditions": "median fluorescence intensity of FAM (detector FL2), 25 µM construct, 0.42% DMSO, 20 hours at 37°C, 5% CO2", "method": "As the eukaryotic cells, NSC-34 cells (mouse motor neuron-like hybrid cell line) were used and the cell membrane permeability of the samples 1 to 7 was analyzed. In Examples 1 to 7, the prepared sample solutions 1 to 7 were used, respectively, and in Example 8, a FAM solution was used.\nThe NSC-34 cells were cultured in 10% fetal bovine serum (FBS)-containing Dulbecco's modified Eagle's medium (DMEM (Cat No. 044-29765, manufactured by FUJIFILM Wako Pure Chemical Corporation)), which is a normal culture medium.\nThe NSC-34 cells that adhered to a culture plate were cleaned with PBS and then, a 0.25%-trypsin/EDTA solution was added thereto, and incubation was performed for three minutes at 37°C. After the incubation, the aforementioned 10% FBS-containing DMEM was added to deactivate trypsin and then, five-minute centrifugal separation was performed at 150 × g to precipitate the cells. After the supernatant generated by the centrifugal separation was removed, the 10% FBS-containing DMEM was added to the precipitate (cell pellet) to prepare a cell suspension of about 2 × 10^5 cells/mL. The cell suspension was added by 1 mL to a well of a commercially available six-hole (well) plate (manufactured by AGC TECHNO GLASS Co., Ltd.) so as to seed the cell (about 2 × 10^5 cells/well). In addition, the 6 mM sample solution 1 was diluted with the 10% FBS-containing DMEM to prepare the sample solution 1 in which the concentration of the sample 1 was 50 µM. Then, 1 mL of the 50 µM sample solution 1 was added to the well (that is, so that the concentration of the sample 1 became 25 µM and the DMSO concentration became 0.42% in the culture solution in the well). After that, the cell was incubated for 20 hours at 37°C under a 5% CO2 condition.\nAfter the 20-hour incubation, the culture supernatant was removed from the well and the cells in the well were cleaned twice with 1 mL of PBS. Next, 200 µL of the 0.25% trypsin/EDTA solution was added to the well and the incubation was performed for three minutes at 37°C. After the incubation, 400 µL of the 10% FBS-containing DMEM was added to the well to deactivate the trypsin. Subsequently, the cell suspension in the well was transferred to a tube and the cells were collected. After that, 600 µL of PBS was added further to the well to clean the well. Then, PBS in the well was transferred to the tube, so that the cells remaining in the well were collected in the tube. This tube was subjected to five-minute centrifugal separation at 4°C under a condition of 210 × g. After the centrifugal separation, the supernatant was removed and the precipitate (cell pellet) was suspended (cleaned) with 1 mL of PBS, which was followed by the centrifugal separation under the same condition as that described above. After this operation was repeated twice, the supernatant was removed and thus, the cells (cell pellet) cultured in a culture medium containing the sample 1 were obtained.\nRegarding the obtained cells (cell pellet), the cell membrane permeability of the sample 1 was analyzed using a flow cytometer. As the flow cytometer, On-Chip Flowcytometer (manufactured by On-Chip Biotechnologies Co., LTD.) was used.\nFor such an analysis, the obtained cell pellet was suspended with 100 µL of on-chip T buffer to prepare a cell suspension for analysis.\nUsing the aforementioned flow cytometer, gating based on forward scatter (FSC) and side scatter (SSC) was performed to set a gate about a cell group to be analyzed, and the fluorescence intensity was measured about the cell group in this gate. Note that the analysis was performed so that the cell group contained at least 10000 cells or more. The fluorescence intensity was measured using a fluorescence detector FL2 of the flow cytometer (optimum detection wavelength around 543 nm) capable of detecting the fluorescence wavelength of FAM. […]", "values": [
      {"substance": "Ac-KKRTLRKDERKKR-FAM (Ac-KKRTLRKDERKKR-{FAM}) [Example 1]", "MFI": 16.3},
      {"substance": "Ac-KKRTLRKEDEDEDRKKR-FAM (Ac-KKRTLRKEDEDEDRKKR-{FAM}) [Example 7]", "MFI": 14.3},
      {"substance": "Ac-KKRTLRKEDRKKR-FAM (Ac-KKRTLRKEDRKKR-{FAM}) [Example 2]", "MFI": 15.7},
      {"substance": "Ac-KKRTLRKEEDDRKKR-FAM (Ac-KKRTLRKEEDDRKKR-{FAM}) [Example 4]", "MFI": 14.3},
      {"substance": "Ac-KKRTLRKDEDERKKR-FAM [Example 6]", "MFI": 15.2},
      {"substance": "Ac-KKRTLRKDDEERKKR-FAM (Ac-KKRTLRKDDEERKKR-{FAM}) [Example 5]", "MFI": 14.8},
      {"substance": "5(6)-carboxyfluorescein [Example 8]", "MFI": 11},
      {"substance": "Ac-KKRTLRKEDEDRKKR-FAM (Ac-KKRTLRKEDEDRKKR-{FAM″}) [Example 3]", "MFI": 13.8}
    ]}
  ]
}
